Test results from paper PMC7546796, “Myricanol Inhibits the Type III Secretion System of Salmonella enterica Serovar Typhimurium by Interfering With the DNA-Binding Activity of HilD” (Frontiers in Microbiology, 2020).

Target: HilD (Salmonella enterica, UniProt P0CL08)
Assay: microscale thermophoresis with dye-labeled purified HilD; supported by thermal shift, DARTS and EMSA
Assay type: binding

Sequence of HilD (P0CL08 whole entry): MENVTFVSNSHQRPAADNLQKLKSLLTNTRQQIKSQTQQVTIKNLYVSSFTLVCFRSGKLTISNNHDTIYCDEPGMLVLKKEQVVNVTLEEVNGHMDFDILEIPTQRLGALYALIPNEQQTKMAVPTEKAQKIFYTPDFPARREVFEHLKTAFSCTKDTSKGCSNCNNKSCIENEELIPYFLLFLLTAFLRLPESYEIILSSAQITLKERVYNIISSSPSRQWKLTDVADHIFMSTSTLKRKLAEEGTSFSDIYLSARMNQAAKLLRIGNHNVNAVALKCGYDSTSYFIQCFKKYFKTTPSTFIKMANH

COc1c2cc(c(O)c1OC)CCCC[C@@H](O)CCc1ccc(O)c-2c1 [compound 1, myricanol]
Kd: 1.38 ± 0.53 µM
